Results published in patent US4853221A, “Method for treating non-small cell lung cancer, head and neck cancers and breast cancer” (Warner-Lambert Company, priority 1987, dated 1989).

Assays:
[1] = tested on: Advanced Stage P388 Leukemia; format: in vivo, mouse; conditions: Test 2
Procedure: (§1) Several studies were carried out to determine the potential for therapeutic synergy of trimetrexate with several clinically active anticancer agents. […] (See, for example, Vendetti, "Relevance of Transplantable Animal-Tumor Systems to the Selection of New Agents for Clinical Trial," Pharmacological Basis of Cancer Chemotherapy. Williams and Wilkins, Baltimore, 1975, and Simpson Herren, et al., "Evaluation of In Vivo Tumor Models for Predicting Clinical Activity for Anticancer Drugs," Proc. Am. Assoc. Cancer Res., 26: 330 (1985).
(§2) Differences in cell kill of greater than ten-fold (one log) were considered indicative of therapeutic synergy.
(§3) CD2F1 mice were quarantined for at least two weeks prior to allocation to test groups. P388 leukemia was passaged in DBA2 mice according to standard protocols of the National Cancer Institute. On Day 0 of a given test, all mice in the test were randomized, injected intraperitoneally with suitably diluted ascites fluid from P388 tumor-bearing donor mice and rerandomized to test cages.
The initial inoculum for all but titration groups was 10^6 cells as determined by hemocytometer count. […]
(§4) Group average weights were determined for all groups on Days 1, 5, and 9 for "early stage" P388 tests and on Days 4, 8, and 12 for "advanced stage" P388 tests. Animals were monitored for life span. […]

[2] = tested on: Early Stage P388 Leukemia; test: Combination chemotherapy, therapeutic synergy against early stage P388 leukemia; format: in vivo, mouse
Procedure: as §1, §2, §3
The initial inoculum for all but titration groups was 10^6 cells as determined by hemocytometer count. Each experiment contained an internal control and tumor titration which enabled the determination of the tumor doubling time and estimates of the log cell kill and number of tumor cells surviving treatment.
Drug treatment was begun either on Day 1 or on Day 4 depending upon the relative activity of the agents being tested.
All of the drugs were injected within one hour of dissolution, with the exception of trimetrexate which was made up fresh twice daily. All mice were treated on the basis of average cage-group weight.
In drug combination regimens, trimetrexate was given approximately 30 minutes before the other therapeutic agents when the route of administration of the other agent was ip. […]
as §4

Lung tumor = test: Human tumor cloning system, lung tumors; format: cell-based; conditions: methotrexate 0.3 μg/ml, one hour; 8 specimens
Text: (§5) The activity of trimetrexate was compared with that of methotrexate in tests with a human tumor cloning system (Latham, et al., Proc. Am. Assoc. Cancer Res., 24: 278 (1983)). The data from these tests appear in Table III were the activities are expressed as the numbers of tumors with 50% or greater reduction in tumor colony forming units after one hour exposure to the drug.

Colon tumor = test: Human tumor cloning system, colon tumors; format: cell-based; conditions: methotrexate 0.3 μg/ml, one hour; 9 specimens
Text: as §5

AML K-562 = test: Inhibition of AML K-562 cell growth in vitro; format: cell-based, human; conditions: Homo sapiens, K562, 48 h, read-out: ED50
Procedure: (§6) Logarithmically growing L1210 cells (approximately 3×10^5 cells/ml) were diluted with Fischer's medium (containing 10% horse serum) to an approximate concentration of 5×10^4 cells/ml. Cells were planted in duplicate into 15 ml culture tubes containing either no drug or various amounts of drug, and incubated for 48 hours at 37° C. before being counted.
(§7) Trimetrexate was also evaluated in a similar manner side-by-side with methotrexate for its effect on the growth of three additional murine cell lines (L5178Y, Sarcoma-180, and Walkler-256) and three human cell lines (acute myelogenous leukemia K-562, T-cell 8402, and B-cell 8392), propagated in vitro.

Breast tumor = test: Human tumor cloning system, breast tumors; format: cell-based; conditions: methotrexate 0.3 μg/ml, one hour; 10 specimens
Text: as §5

T-Cell 8402 = test: Inhibition of T-Cell 8402 growth in vitro; format: cell-based, human; conditions: Homo sapiens, T-cell, 48 h, read-out: ED50
Procedure: as §6, §7

Miscell. tumors = test: Human tumor cloning system, miscellaneous tumors; format: cell-based; conditions: methotrexate 0.3 μg/ml, one hour; 10 specimens
Text: as §5

Renal tumor = test: Human tumor cloning system, renal tumors; format: cell-based; conditions: methotrexate 0.3 μg/ml, one hour; 6 specimens
Text: as §5

Melanoma = test: Human tumor cloning system, melanoma; format: cell-based; conditions: methotrexate 0.3 μg/ml, one hour; 5 specimens
Text: as §5

Ovarian tumor = test: Human tumor cloning system, ovarian tumors; format: cell-based; conditions: methotrexate 0.3 μg/ml, one hour; 6 specimens
Text: as §5

B-Cell 8392 = test: Inhibition of B-Cell 8392 growth in vitro; format: cell-based, human; conditions: Homo sapiens, B-cell, 48 h, read-out: ED50
Procedure: as §6, §7

human tumor cultures = test: Human tumor cloning system, all tumors; format: cell-based
Text: as §5

L1210 cells = test: Inhibition of L1210 cell growth in vitro; format: cell-based, murine; conditions: Mus musculus, L1210, 48 h, read-out: ED50 for L1210 Cells
Procedure: Two leukemia cell lines (L1210 and L5178Y) and two solid tumor cell lines (Sarcoma 180 and Walker 256) were used in these studies.
as §6
*ED50 = the concentration of drug required to reduce the cell count
to 50%, determined by plotting the cell count versus drug concentration.

N.N.[Cl][Pt][Cl] [Cisplatin, cis-Diamminedichloroplatinum (II)]
single agent activity [1]: considerably less active as a single agent

COc1cccc2c1C(=O)c1c(O)c3c(c(O)c1C2=O)C[C@@](O)(C(=O)CO)C[C@@H]3O[C@H]1C[C@H](N)[C@H](O)[C@H](C)O1 [Doxorubicin, (8S,10S)-10-[(3-Amino-2,3,6-trideoxy-α-L-lyxo-hexopyranosyl)oxy]-8-glycoloyl-7,8,9,10-tetrahydro-6,8,11-trihydroxy-1-methoxy-5,12-naphthacenedione]
single agent activity ([2]; Test 1): somewhat less active than expected

CN(Cc1cnc2nc(N)nc(N)c2n1)c1ccc(C(=O)N[C@@H](CCC(=O)O)C(=O)O)cc1 [Methotrexate, N-[4-[[(2,4-diamino-6-pteridinyl)methyl]methylamino]benzoyl]-L-glutamic acid, reference compound]
Number of Tumors with 50% or Greater Decrease in Tumor Colony Forming Units (Lung tumor): 1
Number of Tumors with 50% or Greater Decrease in Tumor Colony Forming Units (Colon tumor): 2
IC50 (AML K-562): 50 nM
Number of Tumors with 50% or Greater Decrease in Tumor Colony Forming Units (Breast tumor): 1
IC50 (T-Cell 8402): 25 nM
Number of Tumors with 50% or Greater Decrease in Tumor Colony Forming Units (Miscell. tumors): 1
Number of Tumors with 50% or Greater Decrease in Tumor Colony Forming Units (Renal tumor): 1
Number of Tumors with 50% or Greater Decrease in Tumor Colony Forming Units (Melanoma): 1
Number of Tumors with 50% or Greater Decrease in Tumor Colony Forming Units (Ovarian tumor): 0
IC50 (B-Cell 8392): 25 nM
human tumor cultures sensitive to methotrexate and resistant to trimetrexate (human tumor cultures; 4/54): 7%
Number of Tumors with 50% or Greater Decrease in Tumor Colony Forming Units (human tumor cultures; Totals, methotrexate 0.3 μg/ml, one hour, 54 specimens): 7
IC50 (L1210 cells): 8 nM

CC[C@]1(O)C[C@H]2CN(CCc3c([nH]c4ccccc34)[C@@](C(=O)OC)(c3cc4c(cc3OC)N(C=O)[C@H]3[C@@](O)(C(=O)OC)[C@H](OC(C)=O)[C@]5(CC)C=CCN6CC[C@]43[C@@H]65)C2)C1 [Vincristine, 22-Oxo-vincaleukoblastine]
single agent activity ([2]; Test 2): the more active of the single agents
